Measured values as given in ChEMBL document CHEMBL1127964, “N-linked analogs of retinoid O-glucuronides: potential cancer chemopreventive/chemotherapeutic agents” (Bioorg Med Chem Lett, 1994).

How the values were obtained:
Rattus norvegicus = species on record: Rattus norvegicus; test: Antitumor activity against DMBA-induced mammary tumors in rats; type: functional
[1] = molecular target: T1, Retinoic acid receptor gamma (Homo sapiens, UniProt P13631); test: Inhibition of [3H]RA binding to Retinoic acid receptor RAR gamma
T1 sequence (P13631 whole entry): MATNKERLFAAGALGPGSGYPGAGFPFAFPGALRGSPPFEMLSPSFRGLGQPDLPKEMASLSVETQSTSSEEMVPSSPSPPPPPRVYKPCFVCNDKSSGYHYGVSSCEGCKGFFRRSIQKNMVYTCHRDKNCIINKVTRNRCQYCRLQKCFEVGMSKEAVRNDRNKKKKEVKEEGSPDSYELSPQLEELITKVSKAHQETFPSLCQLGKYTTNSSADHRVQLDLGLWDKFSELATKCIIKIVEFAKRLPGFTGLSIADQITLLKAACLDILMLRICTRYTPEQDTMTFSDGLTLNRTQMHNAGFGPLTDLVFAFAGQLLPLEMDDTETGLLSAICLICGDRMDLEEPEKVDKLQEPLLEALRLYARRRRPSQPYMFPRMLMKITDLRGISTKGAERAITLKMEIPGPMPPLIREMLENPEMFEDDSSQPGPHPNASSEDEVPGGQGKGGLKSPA

[2] = molecular target: T1, Retinoic acid receptor gamma; test: Inhibition of [3H]RA to binding Retinoic acid receptor RAR gamma

Compound	Tumor (Rattus norvegicus) [number]	Tumor incidence (Rattus norvegicus) [%]	Tumor latency (Rattus norvegicus) [days]	Ki [1] [nM]	Ki [2] [nM]
CC1=C(/C=C/C(C)=C/C=C/C(C)=C/C(=O)O)C(C)(C)CCC1 [TRETINOIN]	1.17	83	49		
CC1=C(/C=C/C(C)=C/C=C/C(C)=C/C(=O)NC2OC(C(=O)O)C(O)C(O)C2O)C(C)(C)CCC1 (stereo unspecified)	0.83	50	64	280	
CC1=C(/C=C/C(C)=C/C=C/C(C)=C/C(=O)NC2OC(CO)C(O)C(O)C2O)C(C)(C)CCC1 (stereo unspecified)	0.92	58	64		710
